# Data reported in US20100035822A1, “PROLINE-RICH PEPTIDES, PHARMACEUTICAL COMPOSITION, USE OF ONE OR MORE PEPTIDES AND METHOD OF TREATMENT” (priority 2006, published 2010).
# Experiments:
# [1] = tested on: total kidney protein extract; assay: NO production in total kidney protein extract; type: biochemical, mouse; conditions: kidney homogenate of mice; 0.01 to 50 μmol, preferentially 0.5 to 2 μmol peptide
# Description: The release of NO was evaluated by means of nitrate and nitrit accumulation in total kidney protein extract of male Swiss mice weighing 30-35 g, as described by Wu and Yen (Wu C C and Yen M H. Higher level of plasma nitric oxide in spontaneously hypertensive rats. Am. J. Hypertension 12: 476-482, 1999). Animals were subjected to perfusion with 0.9% saline solution containing heparin (1:1000). Kidneys were collected and homogenized in cold 50 mM Tris-HCl, 0.1 mM EDTA, 0.1 mM EGTA, 12 mM β-mercaptoethanol, and 1 mM phenylmethylsulphonyl fluoride, pH 7.4 buffer in a homogenizer (Polytron PT MR 3000, Kinematic AG, Littau). Homogenates were incubated with 10 nM, 1 μM, or 10 μM peptide SEQ ID NO 8 in a final volume of 500 μl for 1 hour. Trichloracetic acid (1%) was added at 4° C., and after 20 minutes the mixture was centrifuged at 13.000 g for 7 min at 4° C. A saturated solution of vanadium chloride (VCl3) in 1 M HCl at 90° C. was added to the supernatant, and the concentration of NO was determined by gas chemiluminescence by means of the reaction of NO with ozone in a NO analyzer (NOA^TM280; Sievers Inc.). The concentration of nitrate was determined using a standard curve of NaNO3 and the Bag software 2.2 (Sievers Instruments Inc.).
# [2] = molecular target: T1, argininosuccinate synthase (AsS) (Mus musculus, UniProt P16460); assay: Potentiation of argininosuccinate synthase activity (phosphate generated from ATP); type: biochemical
# T1 construct: Cytosolic and membrane fractions of the renal extract (100 mg/ml total protein) were applied to separate columns; from tissue; host or cells: Balb-c mouse kidney, cytosolic and membrane fractions
# T1 sequence (P16460 1-412): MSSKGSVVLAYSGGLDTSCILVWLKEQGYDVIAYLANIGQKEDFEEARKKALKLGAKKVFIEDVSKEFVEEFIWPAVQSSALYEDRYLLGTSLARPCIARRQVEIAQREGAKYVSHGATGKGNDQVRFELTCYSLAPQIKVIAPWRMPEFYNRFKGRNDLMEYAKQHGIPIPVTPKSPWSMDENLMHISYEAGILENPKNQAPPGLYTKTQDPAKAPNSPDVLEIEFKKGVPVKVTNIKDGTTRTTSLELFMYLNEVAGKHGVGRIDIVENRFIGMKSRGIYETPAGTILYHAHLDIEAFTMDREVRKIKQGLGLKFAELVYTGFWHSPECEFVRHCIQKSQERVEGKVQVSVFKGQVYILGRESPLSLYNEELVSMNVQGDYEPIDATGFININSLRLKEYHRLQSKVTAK
# Description: Activation of the AsS enzyme of Example 3 by peptide SEQ ID NO 8 was quantified in vitro according to Hao et al. [Hao G., Xie L., Gross S. S. Argininosuccinate synthetase is reversibly inactivated by S-nitrosylation in vitro and in vivo. J. Biol. Chem., 279:36192-36200 (2004)]. This method is based on measuring the quantity of phosphate generated from ATP, when pyrophosphatase is added to the reaction medium. Since the activity of the pyrophosphatase relates directly to the enzymatic activity of the AsS, the quantity of generated pyrophosphate is a direct measurement of the AsS activity.
# The AsS enzyme (1 μg) was added to the reaction mixture containing 20 mM Tris-HCl, pH 7.8, 2 mM ATP, 2 mM citrulline, 2 mM aspartate, 6 mM MgCl2, 20 mM KCl, and 0.2 units of pyrophosphatase in a final volume of 200 μL in 96 well microplates. Increasing quantities of the SEQ ID NO 8 peptide (0.5, 1 to 8 μM) were added, and samples were incubated at 37° C. for 60 minutes. The reaction was interrupted by the addition of 200 μL of ammonium molybdate buffer (10 mM ascorbic acid, 2.5 mM ammonium molybdate, 2% sulphuric acid). Resulting phosphate was determined in the samples by spectrophotometry (absorbance at 650 nm), using a standard curve obtained with inorganic phosphate.
# The production rate of phosphate (enzymatic activity of the AsS) was activated up to approximately 2.5 fold upon addition of 2 μM peptide SEQ ID NO 8. […] Accessibility of endothelial and inducible nitric oxide synthase to the intracellular citrulline-arginine regeneration pathway. Biochem. Pharmacol. 69: 97-104, 2005].
# [3] = tested on: normotensive Wistar rats; type: in vivo, rat; conditions: 10 μmoles/Kg of body weight i.v.; 6 hours
# Description: In vivo studies on the effect of peptides of the present invention were performed on adult male spontaneously hypertensive rats, and normotensive Wistar rats (Rattus novergicus) weighing 250 to 350 g. Animals had free access to chow (Nuvilab) and water, and were submitted to a light-dark cycle of 12 hours each. Procedures involving animals and their care were conducted according to Giles [Giles A. R. Guidelines for the use of animals in biomedical research. Thromb. Haemost. 58: 1078-1084, 1987].
# Before drug administration, cardiovascular parameters of the rats were monitored for 40 minutes. Intravenous (I.V.) injection of Ang I (100 ng) was performed in bolus in a total volume of 0.1 mL. 60 minutes after the start of register, 71 nmoles/Kg body weight of peptides SEQ ID NO 8 or SEQ ID NO 4, or captopril were administered I.V. in a total volume of 0.5 mL of 0.9% NaCl solution. […] Arterial blood pressure and heart frequency were continuously monitored for 360 minutes.
# Adult male Wistar normotensive rats, weighing between 250 and 350 g, were used in the experimental evaluation of the hypotensive effect of SEQ ID NO 8, as described in Example 12. An i.v. dose of 10 μmoles/Kg of body weight of peptide SEQ ID NO 8 was injected, and arterial blood pressure was monitored for 6 hours (results not shown).
substance,measurement,setting,value
<ENWPHPQIPP [SEQ ID NO 8],increase of nitrite production (generated from NO),[1],5 fold
same,activation of the production rate of phosphate (enzymatic activity of the AsS),"[2]; 2 μM peptide, AsS 1-8 μg",approximately 2.5 fold
same,activation of AsS,[2]; maximum activation,70-80%
same,hypotensive effect in normotensive rats,[3],no significant hypotensive effect
